# Reference: PubChem BioAssay AID2060490 (Molecular Pharmacology Branch, DTP, NCI, 2025)
# Tested on: 885512-296-R-J2-PDC complex spheroid viability
# Assay: Anticancer human tumor 885512-296-R-J2-PDC patient-derived breast carcinoma cell line growth inhibition [GQUAD]
# Conditions: for IC50: curve of first compound; for viability, T/C: stronger effect = lower value
# In short: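 Tumor cells were grown as complex spheroids with HUVEC endothelial cells and mesenchymal stem cells as stroma. G-quadruplex stabilizers were combined with targeted agents over half-log dilutions from near the clinical Cmax, or from 10 microM.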
# 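Further: spheroids exposed to the compounds for one week.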
# 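Wherever viability, T/C is given: percent of tumor spheroid viability relative to DMSO vehicle control wells.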
smiles,measurement,setting,value
Cn1ncnc1[C@H]1c2n[nH]c(=O)c3cc(F)cc(c23)N[C@@H]1c1ccc(F)cc1 + Cc1cnc(CNC(=O)c2c(=O)c3ccc(N4CCCN(C)CC4)nc3n3c2sc2ccccc23)cn1,IC50,second compound 0.0316 µM,43.5 nM
same,IC50,second compound 0.1 µM,3.57 nM
same,IC50,second compound 0.316 µM,< 0.999 nM
same,IC50,second compound 1 µM,< 0.999 nM
same,IC50,second compound 3.16 µM,< 0.999 nM
same,IC50,second compound 10 µM,< 0.999 nM
same,"viability, T/C","second compound 0.0316 µM, first compound 0.000999 µM",89.2%
same,"viability, T/C","second compound 0.0316 µM, first compound 0.00316 µM",83.8%
same,"viability, T/C","second compound 0.0316 µM, first compound 0.00999 µM",73.5%
same,"viability, T/C","second compound 0.0316 µM, first compound 0.0316 µM",57%
same,"viability, T/C","second compound 0.0316 µM, first compound 0.0999 µM",34.4%
same,"viability, T/C","second compound 0.0316 µM, first compound 0.316 µM",25.5%
same,"viability, T/C","second compound 0.1 µM, first compound 0.000999 µM",51.7%
same,"viability, T/C","second compound 0.1 µM, first compound 0.00316 µM",57.4%
same,"viability, T/C","second compound 0.1 µM, first compound 0.00999 µM",37.1%
same,"viability, T/C","second compound 0.1 µM, first compound 0.0316 µM",34%
same,"viability, T/C","second compound 0.1 µM, first compound 0.0999 µM",27.3%
same,"viability, T/C","second compound 0.1 µM, first compound 0.316 µM",21.1%
same,"viability, T/C","second compound 0.316 µM, first compound 0.000999 µM",31.3%
same,"viability, T/C","second compound 0.316 µM, first compound 0.00316 µM",24%
same,"viability, T/C","second compound 0.316 µM, first compound 0.00999 µM",24.2%
same,"viability, T/C","second compound 0.316 µM, first compound 0.0316 µM",20.5%
same,"viability, T/C","second compound 0.316 µM, first compound 0.0999 µM",24%
same,"viability, T/C","second compound 0.316 µM, first compound 0.316 µM",20.1%
same,"viability, T/C","second compound 1 µM, first compound 0.000999 µM",27.4%
same,"viability, T/C","second compound 1 µM, first compound 0.00316 µM",22.9%
same,"viability, T/C","second compound 1 µM, first compound 0.00999 µM",24.3%
same,"viability, T/C","second compound 1 µM, first compound 0.0316 µM",19.2%
same,"viability, T/C","second compound 1 µM, first compound 0.0999 µM",20%
same,"viability, T/C","second compound 1 µM, first compound 0.316 µM",21.6%
same,"viability, T/C","second compound 3.16 µM, first compound 0.000999 µM",30.3%
same,"viability, T/C","second compound 3.16 µM, first compound 0.00316 µM",26.9%
same,"viability, T/C","second compound 3.16 µM, first compound 0.00999 µM",23.2%
same,"viability, T/C","second compound 3.16 µM, first compound 0.0316 µM",26.2%
same,"viability, T/C","second compound 3.16 µM, first compound 0.0999 µM",21.3%
same,"viability, T/C","second compound 3.16 µM, first compound 0.316 µM",22.2%
same,"viability, T/C","second compound 10 µM, first compound 0.000999 µM",0.17%
same,"viability, T/C","second compound 10 µM, first compound 0.00316 µM",0.23%
same,"viability, T/C","second compound 10 µM, first compound 0.00999 µM",0.25%
same,"viability, T/C","second compound 10 µM, first compound 0.0316 µM",0.19%
same,"viability, T/C","second compound 10 µM, first compound 0.0999 µM",0.2%
same,"viability, T/C","second compound 10 µM, first compound 0.316 µM",0.23%
